The target in one experiment is T1, CK1α (Homo sapiens, UniProt P48729+Q96SW2).
T1 construct: CSNK1A1-HiBit KI HEK293(LgBit) Cells; host or cells: HEK293(LgBit) knock-in cells
The experiment in a line: HiBiT degradation assay, CK1α, Procedure A. Type of experiment: cell-based. A digest of the protocol: (§1)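 Luminescence from HiBiT lytic detection, read after 20 min shaking, gave DC50 and Ymin by 4-parameter fit. Before that, cells (1×10^6 cells/ml, DMEM+10% FBS) sat 6 h at 37° C on 10-point compound series (10 μM–0.005 μM, 0.1% DMSO).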

The next experiment addresses GSPT1 (Homo sapiens, UniProt P15170+Q96SW2). The experiment in a line: HiBiT degradation assay, GSPT1, Procedure A. Type of experiment: cell-based. Also noted: HiBit-GSPT1 KI HEK293(LgBit) Cells; host or cells: HEK293(LgBit) knock-in cells. The procedure, abridged: as §1
(In general: The HiBiT peptide binds its large partner to form an active luciferase.)

The structures appear in SMILES notation.

Sequence of GSPT1 (P15170 whole entry): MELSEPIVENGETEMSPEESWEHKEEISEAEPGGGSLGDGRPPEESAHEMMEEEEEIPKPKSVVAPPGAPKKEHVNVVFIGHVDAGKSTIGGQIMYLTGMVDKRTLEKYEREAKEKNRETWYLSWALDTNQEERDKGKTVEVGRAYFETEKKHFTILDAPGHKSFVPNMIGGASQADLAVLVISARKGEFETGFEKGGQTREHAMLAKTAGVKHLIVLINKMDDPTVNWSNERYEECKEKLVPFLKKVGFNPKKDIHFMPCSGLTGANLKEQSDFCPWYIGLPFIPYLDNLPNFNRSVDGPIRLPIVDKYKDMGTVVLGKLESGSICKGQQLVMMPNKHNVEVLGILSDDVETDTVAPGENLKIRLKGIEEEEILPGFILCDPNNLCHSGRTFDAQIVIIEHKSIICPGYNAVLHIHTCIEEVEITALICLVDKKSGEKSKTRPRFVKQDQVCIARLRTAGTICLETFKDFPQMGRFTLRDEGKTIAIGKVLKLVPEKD
Sequence of GSPT1 (Q96SW2 whole entry): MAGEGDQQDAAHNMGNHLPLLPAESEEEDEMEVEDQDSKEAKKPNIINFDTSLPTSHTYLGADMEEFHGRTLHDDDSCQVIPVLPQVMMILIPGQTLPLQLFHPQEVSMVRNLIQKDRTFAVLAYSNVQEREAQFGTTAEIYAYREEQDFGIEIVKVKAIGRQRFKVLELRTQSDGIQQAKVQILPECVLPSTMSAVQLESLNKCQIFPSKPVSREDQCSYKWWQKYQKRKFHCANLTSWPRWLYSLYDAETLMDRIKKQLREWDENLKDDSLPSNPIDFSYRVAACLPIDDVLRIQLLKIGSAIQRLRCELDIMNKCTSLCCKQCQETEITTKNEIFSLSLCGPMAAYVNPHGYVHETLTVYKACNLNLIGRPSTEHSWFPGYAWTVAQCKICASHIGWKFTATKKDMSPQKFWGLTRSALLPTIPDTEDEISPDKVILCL
Sequence of GSPT1 (Q16531 whole entry partner): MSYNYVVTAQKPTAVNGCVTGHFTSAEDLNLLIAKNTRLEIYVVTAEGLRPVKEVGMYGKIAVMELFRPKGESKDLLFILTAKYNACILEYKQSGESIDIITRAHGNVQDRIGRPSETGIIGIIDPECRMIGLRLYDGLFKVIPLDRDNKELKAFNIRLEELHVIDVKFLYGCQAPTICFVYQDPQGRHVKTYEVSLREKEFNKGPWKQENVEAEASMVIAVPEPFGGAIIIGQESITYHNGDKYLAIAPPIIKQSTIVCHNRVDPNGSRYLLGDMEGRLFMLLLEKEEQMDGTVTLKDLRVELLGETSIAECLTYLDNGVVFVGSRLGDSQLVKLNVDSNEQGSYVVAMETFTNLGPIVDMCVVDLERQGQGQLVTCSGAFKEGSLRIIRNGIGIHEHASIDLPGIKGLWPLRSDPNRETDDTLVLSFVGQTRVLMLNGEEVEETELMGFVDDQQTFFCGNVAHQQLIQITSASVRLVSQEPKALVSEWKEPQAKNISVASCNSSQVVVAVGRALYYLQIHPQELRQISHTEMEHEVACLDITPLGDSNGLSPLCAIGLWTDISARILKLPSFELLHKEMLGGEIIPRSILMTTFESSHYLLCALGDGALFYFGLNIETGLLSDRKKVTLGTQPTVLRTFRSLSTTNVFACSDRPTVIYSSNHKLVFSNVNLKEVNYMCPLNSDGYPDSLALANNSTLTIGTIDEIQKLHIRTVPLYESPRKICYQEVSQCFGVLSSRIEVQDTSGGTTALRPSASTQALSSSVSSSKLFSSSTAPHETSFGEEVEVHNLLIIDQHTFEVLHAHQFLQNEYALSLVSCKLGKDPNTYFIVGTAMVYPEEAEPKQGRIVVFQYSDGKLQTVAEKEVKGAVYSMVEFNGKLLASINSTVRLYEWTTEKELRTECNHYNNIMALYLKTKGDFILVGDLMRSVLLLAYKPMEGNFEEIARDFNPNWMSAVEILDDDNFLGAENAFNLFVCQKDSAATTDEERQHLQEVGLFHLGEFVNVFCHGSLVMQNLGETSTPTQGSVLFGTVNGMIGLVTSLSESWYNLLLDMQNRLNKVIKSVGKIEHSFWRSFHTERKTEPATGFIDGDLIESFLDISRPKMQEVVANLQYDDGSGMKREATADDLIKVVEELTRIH
T1 sequence (P48729 whole entry): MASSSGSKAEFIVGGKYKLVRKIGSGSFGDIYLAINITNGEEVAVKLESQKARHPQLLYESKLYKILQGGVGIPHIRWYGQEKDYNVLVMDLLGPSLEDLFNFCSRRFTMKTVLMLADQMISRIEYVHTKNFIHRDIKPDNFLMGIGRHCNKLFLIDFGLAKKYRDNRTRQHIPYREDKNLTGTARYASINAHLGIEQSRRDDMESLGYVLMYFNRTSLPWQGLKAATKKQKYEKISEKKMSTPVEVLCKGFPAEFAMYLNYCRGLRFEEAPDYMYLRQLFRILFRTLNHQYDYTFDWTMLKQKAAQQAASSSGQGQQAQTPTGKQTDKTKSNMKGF
T1 sequence (Q96SW2 whole entry): as the sequence (Q96SW2 whole entry) above
T1 sequence (Q16531 whole entry partner): as the sequence (Q16531 whole entry partner) above

In the case of `Cn1ncc(-c2ccc3c(c2)CN(C2CCC(=O)NC2=O)C3=O)c1-c1cnn(Cc2cccnc2)c1` (centres unmarked) [Example 464], at CK1α (six hours), the “CK1α Ymin” value is “F (F = >75-100% remaining)” and the 50% degradation concentration (DC50) is at least 25 nM. For the same compound, at GSPT1 (six hours), the DC50 is at least 25 nM and the “GSPT1 Ymin” value was “F (F = >75-100% remaining)”.
On to `Cn1cnc(-c2ccccc2)c1-c1ccc2c(c1)CN(C1CCC(=O)NC1=O)C2=O` (centres unmarked) [Example 21, 3-(5-(1-Methyl-4-phenyl-1H-imidazol-5-yl)-1-oxoisoindolin-2-yl)piperidine-2,6-dione], for which, at CK1α (six hours incubation), the “CK1α Ymin” value is on record as “E (E = >25-75% remaining)” and the 50% degradation concentration (DC50) was at least 25 nM. In addition, on GSPT1 (six hours incubation), the DC50 is at least 25 nM and the “GSPT1 Ymin” value is “C (C = 0-10% remaining)”.
`COc1ccsc1-c1c(-c2ccc3c(c2)CN(C2CCC(=O)NC2=O)C3=O)ncn1C` (centres unmarked) [Example 508]: on CK1α (six hours), the “CK1α Ymin” value is “D (D = >10- 25% remaining)” and the DC50 was below 25 nM. On GSPT1 (six hours), the DC50 was at least 25 nM and the “GSPT1 Ymin” value is “F (F = >75-100% remaining)”.
For `Cn1ncc(-c2ccc3c(c2)CN(C2CCC(=O)NC2=O)C3=O)c1-c1ccn(-c2ccc(F)cc2)n1` (centres unmarked) [Example 396] the same measures were “E (E = >25-75% remaining)”, below 25 nM, at least 25 nM and “F (F = >75-100% remaining)”.
Consider `[2H]C([2H])([2H])n1ncc(-c2ccc3c(c2)CN(C2CCC(=O)NC2=O)C3=O)c1-c1ccccc1` (centres unmarked) [Example 207, 3-(5-(1-(Methyl-d3)-5-phenyl-1H-pyrazol-4-yl)-1-oxoisoindolin-2-yl)piperidine-2,6-dione], for which, on CK1α (six hours incubation), the “CK1α Ymin” value was “D (D = >10- 25% remaining)” and the DC50 was below 25 nM. Besides, at GSPT1 (six hours incubation), the DC50 is at least 25 nM and the “GSPT1 Ymin” value is reported as “F (F = >75-100% remaining)”.
Turning to `Cn1ncc(-c2ccc3c(c2)CN(C2CCC(=O)NC2=O)C3=O)c1-c1cccc(C(F)F)c1` (centres unmarked) [Example 59], on CK1α (six hours incubation), the “CK1α Ymin” value is given as “E (E = >25-75% remaining)” and the DC50 is below 25 nM. Besides, at GSPT1 (six hours incubation), the DC50 is at least 25 nM and the “GSPT1 Ymin” value was “F (F = >75-100% remaining)”.
`Cn1cc(-c2ccc3c(c2)CN(C2CCC(=O)NC2=O)C3=O)nc1-c1ccc(C(F)F)cc1` (centres unmarked) [Example 587]: at CK1α (six hours), the “CK1α Ymin” value was “C (C = 0-10% remaining)” and the 50% degradation concentration (DC50) was below 25 nM. Moreover, on GSPT1 (six hours), the DC50 is at least 25 nM and the “GSPT1 Ymin” value is “F (F = >75-100% remaining)”.
`Cn1c(C(F)F)nc(-c2ccc3c(c2)CN(C2CCC(=O)NC2=O)C3=O)c1-c1cncnc1` (centres unmarked) [Example 540, 3-(5-(2-(difluoromethyl)-1-methyl-5-(pyrimidin-5-yl)-1H-imidazol-4-yl)-1-oxoisoindolin-2-yl)piperidine-2,6-dione]: at CK1α (six hours), the “CK1α Ymin” value is given as “C (C = 0-10% remaining)” and the DC50 is below 25 nM. For the same compound, at GSPT1 (six hours), the DC50 is at least 25 nM and the “GSPT1 Ymin” value is recorded as “F (F = >75-100% remaining)”.
Turning to `COc1ccccc1-c1c(-c2ccc3c(c2)CN(C2CCC(=O)NC2=O)C3=O)cnn1C` (centres unmarked) [Example 96], on CK1α (six hours incubation), the “CK1α Ymin” value is given as “E (E = >25-75% remaining)” and the DC50 is at least 25 nM. In addition, at GSPT1 (six hours incubation), the DC50 is at least 25 nM and the “GSPT1 Ymin” value is given as “F (F = >75-100% remaining)”.
As to `Cn1nc(-c2ccc3c(c2)CN(C2CCC(=O)NC2=O)C3=O)nc1N1CCCCC1` (centres unmarked) [Example 554, 3-(5-(1-methyl-5-(piperidin-1-yl)-1H-1,2,4-triazol-3-yl)-1-oxoisoindolin-2-yl) piperidine-2,6-dione], at CK1α (six hours), the “CK1α Ymin” value is recorded as “D (D = >10- 25% remaining)” and the DC50 was below 25 nM. At GSPT1 (six hours), the DC50 is at least 25 nM and the “GSPT1 Ymin” value is recorded as “F (F = >75-100% remaining)”.
`Cn1ncc(-c2ccc3c(c2)CN(C2CCC(=O)NC2=O)C3=O)c1-c1cccc2c1CCC2` (centres unmarked) [Example 114]: on CK1α (six hours incubation), the “CK1α Ymin” value was “E (E = >25-75% remaining)” and the DC50 was below 25 nM. For the same compound, at GSPT1 (six hours incubation), the DC50 was at least 25 nM and the “GSPT1 Ymin” value is recorded as “F (F = >75-100% remaining)”.

What is called DC50 is the concentration at which degradation of the target reaches its halfway point.

The values above are taken from US20240158370A1, “CK1 alpha AND DUAL CK1 alpha / GSPT1 DEGRADING COMPOUNDS” (Innovo Therapeutics, Inc., priority 2022, published 2024).
